Measurements as given in PMC5130005, “Indolin-2-one compounds targeting thioredoxin reductase as potential anticancer drug leads” (Oncotarget, 2016).

Assays:
HCT 116 cells = assay: MTT cell viability assay, HCT 116 cells; type: cell-based; details: Homo sapiens, 72 h, mean ± SD of 3 experiments; for GI50: read-out: GI50 (50% growth inhibition concentration), HCT 116 cells
Protocol: (§1) HCT 116 and MCF-7 cells were seeded in 96-well plates at a density of 1 × 10^4 cells/well and allowed to grow for 20-24 h before addition of test compounds. DMSO stocks of indolin-2-one compounds were serially diluted in medium each time an assay was performed. Cell viability was determined at the time of compound addition (time 0) and after 72 h of compound treatment by reduction of 3-(4,5-dimethylthiazol-2-yl)-2,5-diphenyltetrazolium bromide (MTT) by dehydrogenases in viable cells. MTT was added into each well (final concentration 400 μg/ml) and the plates were incubated for 4 h at 37°C. The supernatants were aspirated and upon solubilization of the formed formazan crystals in DMSO:glycine buffer pH 10.5 (ratio 4:1), absorbance at 550 nm was measured. 50% growth inhibition concentrations (GI50) and 50% lethal concentrations (LC50) values were calculated.

MCF-7 cells = assay: MTT cell viability assay, MCF-7 cells; type: cell-based; details: Homo sapiens, MCF7, 72 h, mean ± SD of 3 experiments; for GI50: read-out: GI50 (50% growth inhibition concentration), MCF-7 cells; for CC50: read-out: LC50 (50% lethal concentration), MCF-7 cells
Protocol: as §1

yeast GR = molecular target: T1, yeast GR (Saccharomyces cerevisiae, UniProt P41921); assay: in vitro yeast GR activity (glutathione reduction assay); type: biochemical; details: 60 min incubation, 1-100 μM, 20 nM yeast GR, 200 μM NADPH
T1 construct: purchased Sigma
T1 sequence (P41921 17-483 limits assumed): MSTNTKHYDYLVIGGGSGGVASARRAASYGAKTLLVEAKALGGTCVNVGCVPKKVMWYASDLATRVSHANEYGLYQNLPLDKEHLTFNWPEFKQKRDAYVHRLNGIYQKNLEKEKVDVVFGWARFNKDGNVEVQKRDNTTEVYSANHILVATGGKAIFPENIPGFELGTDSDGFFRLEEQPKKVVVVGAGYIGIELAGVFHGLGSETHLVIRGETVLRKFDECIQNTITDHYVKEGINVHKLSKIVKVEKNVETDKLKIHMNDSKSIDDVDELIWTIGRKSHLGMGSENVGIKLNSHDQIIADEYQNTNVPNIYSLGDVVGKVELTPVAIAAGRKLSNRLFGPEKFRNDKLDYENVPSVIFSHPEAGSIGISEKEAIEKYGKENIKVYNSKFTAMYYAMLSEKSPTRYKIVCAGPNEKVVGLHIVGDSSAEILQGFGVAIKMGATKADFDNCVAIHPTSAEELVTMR
Protocol: To determine in vitro yeast GR activity, compounds of concentrations 1-100 μM were incubated with 20 nM yeast GR and 200 μM NADPH in a volume of 100 μl phosphate buffer (0.1 M sodium phosphate, 2 mM EDTA pH 7.5) for 1 h at room temperature. At the end of the incubation, 100 μl of […] GSSG (final concentration 500 μM) and 200 μM NADPH in phosphate buffer was added to each well. NADPH consumption was monitored by measurement of absorbance at 340 nm using the VersaMax microplate reader. The results were calculated based on decrease in absorbance in the initial 90 s and expressed as a percentage of the enzyme activity of the DMSO-treated sample. For determination of cellular GR activity, 25 μg of cell lysate was mixed with a solution of GSSG and NADPH in phosphate buffer to a final volume of 200 μl (final GSSG and NADPH concentrations 1 mM and 200 μM respectively). The enzyme activity was determined by measuring the decrease in absorbance at 340 nm for 10 min at 37°C and expressed as a percentage of the enzyme activity of that of the DMSO-treated sample.

bovine GPx = molecular target: T2, bovine GPx (Bos taurus, UniProt P00435); assay: in vitro bovine GPx activity assay; type: biochemical; details: 60 min incubation, 1-100 μM, 100 nM bovine GPx
T2 construct: purchased Sigma
T2 sequence (P00435 1-205): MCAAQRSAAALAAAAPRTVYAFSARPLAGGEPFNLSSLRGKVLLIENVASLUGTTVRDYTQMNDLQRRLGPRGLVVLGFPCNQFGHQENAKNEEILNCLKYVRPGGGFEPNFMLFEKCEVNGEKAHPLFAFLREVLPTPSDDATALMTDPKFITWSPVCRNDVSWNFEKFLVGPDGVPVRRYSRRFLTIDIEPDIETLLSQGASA
Protocol: For determination of in vitro bovine GPx activity, compounds of concentrations 1-100 μM were incubated with 100 nM bovine GPx, 20 nM yeast GR, 1 mM GSH and 200 μM NADPH in a volume of 100 μl phosphate buffer (0.1 M sodium phosphate, 2 mM EDTA pH 7.5) for 1 h at room temperature. H2O2 solution in phosphate buffer was added to initiate the reaction (final concentration 1.5 mM). NADPH consumption was monitored at 340 nm using the VersaMax microplate reader. The cellular GPx activity was determined similarly except lysates of HCT 116 and MCF-7 cells (25 μg protein) were used instead of bovine GPx. The results were calculated based on decrease in absorbance in the initial 3 min and presented as % of GPx activity of drug-treated sample over that of DMSO-treated sample.

CC(=O)/C=C1/C(=O)N(Cc2ccccc2)c2ccccc21 [Compound 5] was tested, and the LC50 (50% lethal concentration) (HCT 116 cells) was 9.4 ± 0.3 µM, the GI50 (HCT 116 cells) was 3.2 ± 0.1 µM and the GI50 (MCF-7 cells) was 4.5 ± 0.6 µM. The CC50 (MCF-7 cells) was 9.6 ± 0.2 µM, the “yeast GR activity” value (yeast GR) was “uninhibited” and the “bovine GPx activity” value (bovine GPx) was “uninhibited”.

Molecule CC(=O)C=C1C(=O)N(C)c2ccccc21 [Compound 1, 1-methyl-3(2-oxopropylidene)indolin-2-one] has a GI50 (HCT 116 cells) of 11.8 ± 3.3 µM, a GI50 (MCF-7 cells) of 15.1 ± 4.1 µM and a CC50 (MCF-7 cells) of 27.6 ± 0.4 µM. For the same molecule, the “yeast GR activity” value (yeast GR) was “uninhibited” and the “bovine GPx activity” value (bovine GPx) was “uninhibited”.

Work on CN1C(=O)/C(=C/C(=O)c2ccccc2)c2ccccc21 [Compound 6] yielded an LC50 (50% lethal concentration) (HCT 116 cells) of 27.2 ± 2.4 µM, a GI50 (HCT 116 cells) of 8.5 ± 0.8 µM and a GI50 (MCF-7 cells) of 14 ± 3.7 µM. For the same molecule, the CC50 (MCF-7 cells) was 27.1 ± 0.5 µM, the “yeast GR activity” value (yeast GR) was “uninhibited” and the “bovine GPx activity” value (bovine GPx) was “uninhibited”.

In the case of CCCCN1C(=O)/C(=C/C(C)=O)c2ccccc21 [Compound 4], the LC50 (50% lethal concentration) (HCT 116 cells) is reported as 9.7 ± 0.2 µM, the GI50 (HCT 116 cells) is reported as 4.5 ± 0.9 µM and the GI50 (MCF-7 cells) is reported as 6.4 ± 1.5 µM. For the same molecule, the CC50 (MCF-7 cells) was 22.4 ± 3.6 µM, the “yeast GR activity” value (yeast GR) was “uninhibited” and the “bovine GPx activity” value (bovine GPx) was “uninhibited”.
